In patent publication US9155726B2, “Method of treatment using checkpoint kinase 1 inhibitors” (ARRAY BIOPHARMA INC., priority 2009, dated 2015):
Where two headings read alike, the source gives them in different places.

What was measured:
[1] = test system: subcutaneous HT-29 xenografts; test: TGI/tolerability experiment, CPT11 with simultaneous or 24 hour delayed Compound 1 (Example 3); format: in vivo, nude mice; conditions: single agents: CPT11 100 mg/kg IP single dose; Compound 1 50 mg/kg PO BID 3 days
Method: (§1) Female nude mice were inoculated subcutaneously with 5×10^6 HT-29 tumor cells in 1×PBS (100 μL). Twelve days later, mice were randomized into groups of 6 with an average tumor volume in each group of approximately 250 mm^3. […] Tumor size and animal body weight were measured over the course of the study on the days indicated with data points in FIG. 5. Tumor volume was calculated using the formula: volume=(width^2×length)/2.

[2] = Tolerability of CPT11 with Compound 2 started 12, 24 or 48 hours post CPT11 (Example 4); format: in vivo, nude mice; conditions: single agents: CPT11 100 mg/kg IP Q10Dx2; Compound 2 25 mg/kg PO BID 3 days per cycle; naive mice
[3] = test system: subcutaneous HT-29 xenografts; conditions: mouse, in vivo, ip, 100 mg/kg
Method: as §1, with “μL). Fourteen” for “μL). Twelve”, “of 8” for “of 6”, “approximately 260” for “approximately 250”, “FIG. 12.” for “FIG. 5.”

[4] = test system: subcutaneous HT-29 xenografts; test: TGI experiment, CPT11 with Compound 5 (Example 12); format: in vivo
Method: as §1, with “4×10^6” for “5×10^6”, “7” for “6”, “200” for “250”, “13.” for “5.”, “volume=(width^2×length)/2. No mortalities occurred over the course of this study.” for “volume=(width^2×length)/2.”

Phosphorylation of cdc2 [5] = test: Inhibition of CPT11 induced phosphorylation of cdc2 in HT-29 tumors, immunoblot (Example 6); format: in vivo, nude mice; conditions: 3 consecutive days BID versus single dose, 25 mg/kg PO, from 24 hours after CPT11 100 mg/kg
Method: Female nude mice were inoculated subcutaneously with 5×10^6 HT-29 tumor cells in 1×PBS (100 μL). Twenty four days later, mice were randomized into groups of 3 with an average tumor volume in each group of approximately 450 mm^3. […] Compound 2 was given as a single dose, or alternatively for 3 consecutive days on a BID schedule. All tumors from animals dosed with Compound 2 were harvested 2 hours post dose. Phosphorylation of cdc2 was assessed by immunoblot and normalized to total ERK expression. Results are expressed as POC.

[6] = test system: subcutaneous HT-29 xenografts; test: TGI experiment, CPT11 with Compound 2 for 1 or 3 days (Example 5); format: in vivo; conditions: single agents: CPT11 100 mg/kg IP Q10Dx2; Compound 2 25 mg/kg PO BID
Method: as §1, with “of 8” for “of 6”, “approximately 215” for “approximately 250”, “FIG. 6.” for “FIG. 5.”, “volume=(width^2×length)/2. No mortalities occurred over the course of this study.” for “volume=(width^2×length)/2.”

[7] = Compound 2 exposure after single dose or 3 days dosing (Example 6); format: in vivo, nude mice; conditions: 25 mg/kg PO, from 24 hours after CPT11 100 mg/kg; t-test>0.05
Phosphorylation of cdc2 [8] = test: Inhibition of CPT11 induced phosphorylation of cdc2 in HT-29 tumors, immunoblot (Example 7); format: in vivo, nude mice; conditions: 5, 10 or 25 mg/kg PO BID 3 consecutive days from 24 hours after CPT11 100 mg/kg; HT-29 tumors harvested 96 hours post CPT11
Method: Female nude mice were inoculated subcutaneously with 5×10^6 HT-29 tumor cells in 1×PBS (100 μL). Twenty nine days later, mice were randomized into groups of 3 with an average tumor volume in each group of approximately 500 mm^3. […] Compound 5 was given as a single dose at 25 mg/kg, or alternatively 5, 10, or 25 mg/kg doses were given for 3 consecutive days on BID schedules. […] Phosphorylation of cdc2 was assessed by immunoblot and normalized to total ERK expression. Results are expressed as POC.

[9] = single agents: CPT11 100 mg/kg IP Q10Dx2, Compound 5 PO BID (dose of single-agent group not given)

For `CCc1c2c(nc3ccc(OC(=O)N4CCC(N5CCCCC5)CC4)cc13)-c1cc3c(c(=O)n1C2)COC(=O)[C@]3(O)CC` [CPT11, irinotecan], the “% Mortality” value [1] was 0%, the “% Mortality” value [2] was 0% and the “Day of Maximum % Body Weight Loss” value [2] was 14 days. For the same compound, the “Maximum % Body Weight Loss” value [2] was 3.4%, the “Maximum % Body Weight Loss” value [3] was 0.08% and the “Day of Maximum % Body Weight Loss” value ([4]; mouse, in vivo, 100 mg/kg) was 18 days. For the same compound, the “Maximum % Body Weight Loss” value ([4]; mouse, in vivo, 100 mg/kg) was 6.3%.

With `N[C@@H]1CCCN(c2c(Br)cnc3[nH]cc(NC(=O)c4cccnc4)c23)C1` [Compound 1, (R)—N-(4-(3-aminopiperidin-1-yl)-5-bromo-1H-pyrrolo[2,3-b]pyridin-3-yl)nicotinamide] the “Inhibition of CPT11 induced phospho-cdc2 with extended dosing” value (Phosphorylation of cdc2 [5]) was “Superior Inhibition”.

For `CC(C)C(=O)Nc1c[nH]c2ncc(Br)c(N3CCC[C@@H](N)C3)c12` [Compound 2, (R)—N-(4-(3-aminopiperidin-1-yl)-5-bromo-1H-pyrrolo[2,3-b]pyridin-3-yl)isobutyramide], the “Day of Maximum % Body Weight Loss” value [2] was 17 days, the “Maximum % Body Weight Loss” value [2] was 0.3% and the “Day of Maximum % Body Weight Loss” value [6] was 3 days. For the same compound, the “Maximum % Body Weight Loss” value [6] was 7.2% and the “Compound 2 exposure, single dose versus administration for 3 days” value [7] was “not statistically different”.

With `N[C@@H]1CCCN(c2c(Br)cnc3[nH]cc(NC(=O)C4CC4)c23)C1` [Compound 5, (R)—N-(4-(3-aminopiperidin-1-yl)-5-bromo-1H-pyrrolo[2,3-b]pyridin-3-yl)cyclopropanecarboxamide] the “Day of Maximum % Body Weight Loss” value [4, 9] was 18 days, the “Maximum % Body Weight Loss” value [4, 9] was 2.5% and the “Inhibition of CPT11 induced phospho-cdc2 with extended dosing” value (Phosphorylation of cdc2 [8]) was “Dose-Related Inhibition”.
